Measured values taken from patent US20110262561A1, “Protoilludance Norsesquiterpenoid Esters and Uses Thereof” (NATIONAL RESEARCH INSTITUTE OF CHINESE MEDICINE, priority 2010, published 2011).
Where two headings read alike, the source gives them in different places.

Key:
[1] = MTT cell viability of endothelial cells (ECs); assay type: cell-based, human; conditions: human, Eahy926 endothelial-like cells, column head prints none, read-out: Cell viability IC50 (cytotoxicity concentration on ECs)
Protocol: (§1) The endothelial cells (human endothelial-like cells, Eahy926) and 4 cancer cell lines (MCF-7, H460, HT-29, and CEM) were derived from the American Type Culture Collection (ATCC) and were maintained in DMEM or RPMI medium (Life Technologies) supplemented with 2 mM L-glutamine and 10% heat-inactivated fetal bovine serum (FBS) (Life Technologies) under standard culture conditions. The cell viability and cell number were determined by the Trypan Blue dye-exclusion method.
(§2) Anti-angiogenic effects of CH-205 compounds were estimated by their inhibition on the growth of endothelial cells. The toxicity of CH-205 compounds to endothelial cells was estimated using MTT (3-(4,5-dimethy;thiazol-2-yl)-2,5-diphenyltetrazolium bromide, a tetrazole) assay. MTT assay is a standard colorimetric assay (an assay which measures changes in color) for measuring the activity of enzymes that reduce yellow MTT to formazan, giving a purple color. It is also used to determine cytotoxity of potential medicinal agents and other toxic materials, since those agents would result in cell toxicity and therefore metabolic dysfunction and therefore decreased performance in the assay. The cytotoxity concentrations of the CH-205 compounds measured in MTT test are all over 20 μM (Table 2), however, their effects on angiogenesis inhibition are in nM range, indicating the safety of these compounds (Table 3).

[2] = test system: endothelial cells (human endothelial-like cells, Eahy926); test: MTT cell viability of endothelial cells (ECs); assay type: cell-based
Protocol: as §1, §2

MCF-7 = test: Alamar blue cytotoxicity assay on MCF-7 cancer cells; assay type: cell-based; conditions: for IC50: Homo sapiens, MCF7, alamar blue, 48 hours treatment
Protocol: as §1
(§3) The alamar blue (AB) assay (dye purchased from Biosource International, Nivelles, Belgium) was used to estimate cell viability in accordance with procedures previously described by Fatokun et al (Bone (2006) 39, 542-551). Briefly, cells were treated with various concentration of each of the test compounds (e.g., compounds of example 1.1) at 37° C. for 48 hours, and the medium in each well was then aspirated at the end of the treatment, 100 μL of fresh medium containing 10% v/v AB was then added to the control and the treated wells, respectively. Plates were then incubated at 37° C. for 6 hour prior to measuring the absorbance at 570 nm and at 600 nm wavelengths using a spectrophotometric plate reader (DYNEX Technologies, USA). Experimental data were normalized to control values. CH-205-A, K, L, O, and -P were effective on MCF-7 cells; CH-205-A, H, K, L, O, and -P were effective on H460 cells; CH-205-A and -P were effective on HT-29 cells and CH-205-A, H, N, and -O were effective on CEM cells.

HT-29 = test: Alamar blue cytotoxicity assay on HT-29 cancer cells; assay type: cell-based; conditions: Homo sapiens, HT-29; alamar blue, 48 hours treatment
Protocol: as §1, §3

H460 = test: Alamar blue cytotoxicity assay on H460 cancer cells; assay type: cell-based, human; conditions: for IC50: Homo sapiens, NCI-H460, alamar blue, 48 hours treatment
Protocol: as §1, §3

[3] = test system: H460 human lung cancer tumor xenograft; conditions: for effect on body weight: mouse, in vivo
Protocol: The established, transplantable, 5×10^6/200 μL H460 tumor cells were prepared in RPMI medium. The 200 μL of cell suspension was injected subcutaneously into right flank area of each mouse. The mice were randomized into vehicle control and drug treatment groups of four-six animals each when xenografts were palpable with a tumor size of 40 mm^3. Adminitration of the lead compounds or vehicle began on day 15 when the median tumor size was ranged from 75 to 80 mm^3. Tumor-bearing animals were randomized (five per group) prior to treatment. The candidate test drugs were intraperitoneal (IP) administered into with optimal dosage once every other day (48 hr apart) for 7 or 10 times. […] Solvent vehicle and cisplatin (5 mg/kg) were used to administrate, respectively, as io negative and positive controls. Two days after last administration of tested compounds, the animals were sacrificed. The tumor dimensions were measured every other day using a linear caliper and tumor volume is calculated using the equation V (mm^3)=a×b^2/2, where a is the largest diameter and b is the smallest diameter. Body weights are also recorded once weekly. Tumor is growth inhibition ratio (TGI) is calculated using the equation TGI=(1−(the mean treated tumor mass/mean control tumor mass))*100%.

CEM = test: Alamar blue cytotoxicity assay on CEM cancer cells; assay type: cell-based; conditions: for IC50: Homo sapiens, CCRF-CEM, alamar blue, 48 hours treatment
Protocol: as §1, §3

endothelial cells (ECs) = test: In vitro antiangiogenesis on ECs (inhibition of endothelial cell growth); assay type: cell-based; conditions: Homo sapiens, ECs, read-out: In vitro antiangiogenesis IC50
Protocol: as §1, §2

| SMILES | IC50 [1] [µM] | Cell viability (% of control) 1 μM [2] | Cell viability (% of control) 10 μM [2] | Cell viability (% of control) 50 μM [2] | Cell viability (% of control) 100 μM [2] | Cell viability (% of control) 250 μM [2] | Cell viability (% of control) 500 μM [2] | effective on MCF-7 cells (MCF-7) | IC50 (MCF-7) [µM] | IC50 (HT-29) [µM] | effective on H460 cells (H460) | IC50 (H460) [µM] | effect on body weight [3] | IC50 (CEM) [µM] | IC50 (endothelial cells (ECs)) [µM] | other results |
| --- | --- | --- | --- | --- | --- | --- | --- | --- | --- | --- | --- | --- | --- | --- | --- | --- |
| COc1cc(O)c(C(=O)O[C@@H]2C[C@]3(C)C4CC(C)(C)CC4C=C(C=O)[C@]23O)c(C)c1Cl (stereo partly drawn) [CH-205-O, (2R,2aS,7bR)-3-formyl-2,2a,4a,5,6,7,7a,7b-octahydro-2a-hydroxy-6,6,7b-trimethyl-1 H-cyclobuta[e]inden-2-yl 3-chloro-6-hydroxy-4-methoxy-2-methylbenzoate] | 13.2 | 98.5 % of control | 43.6 % of control | 7.0 % of control | 6.5 % of control | 7.1 % of control | 7.0 % of control | effective | 1.7 | 42.1 | effective | 4.5 | no different effect on body weight | 5.1 | 0.0021 | tumor volume after sacrifice ([3]; CH-205-O study, 4 mg/kg IP every other day, 10 times, solvent control 3.984±0.484): 1.475±0.155 cm^3; Tumor growth inhibition ratio (TGI) ([3]; CH-205-O study, 4 mg/kg IP, 10 times): 60.87%; tumor volume after sacrifice ([3]; CH-205-O study, 40 mg/kg IP every other day, 10 times, solvent control 3.984±0.484): 1.470±0.177 cm^3; Tumor growth inhibition ratio (TGI) ([3]; CH-205-O study, 40 mg/kg IP, 10 times): 70.7%; tumor volume after sacrifice ([3]; CH-205-O study, 80 mg/kg IP every other day, 10 times, solvent control 3.984±0.484): 1.645±0.206 cm^3; Tumor growth inhibition ratio (TGI) ([3]; CH-205-O study, 80 mg/kg IP, 10 times): 62.9%; tumor regression ([3]; CH-205-O study, 4, 40 and 80 mg/kg each other day, after 10 injections): highly significant tumor regression; effective on CEM cells (CEM): effective |
| Cc1c(Cl)c(O)cc(O)c1C(=O)O[C@@H]1C[C@]2(C)C3CC(C)(C)CC3C=C(CO)[C@]12O (stereo partly drawn) [CH-205-K, (2R,2aS,7bR)-2,2a,4a,5,6,7,7a,7b-octahydro-2a-hydroxy-3-(hydroxymethyl)-6,6,7b-trimethyl-1H-cyclobuta[e]inden-2-yl 3-chloro-4,6-dihydroxy-2-methylbenzoate] | 21.4 | 103.7 % of control | 122.7 % of control | 6.4 % of control | 6.4 % of control | 7.0 % of control | 8.8 % of control | effective | 4.8 | 56.7 | effective | 4.5 | no different effect on body weight | 28.8 | 0.0032 | tumor volume after sacrifice ([3]; CH-205-K study, 4 mg/kg IP every other day, 7 times, control 1.743±0.129): 1.364±0.14 cm^3; Tumor growth inhibition ratio (TGI) ([3]; CH-205-K study, 4 mg/kg IP, 7 times): 21.74%; tumor volume after sacrifice ([3]; CH-205-K study, 20 mg/kg IP every other day, 7 times, control 1.743±0.129): 1.283±0.077 cm^3; Tumor growth inhibition ratio (TGI) ([3]; CH-205-K study, 20 mg/kg IP, 7 times): 26.38%; tumor volume after sacrifice ([3]; CH-205-K study, 40 mg/kg IP every other day, 7 times, control 1.743±0.129): 1.109±0.119 cm^3; Tumor growth inhibition ratio (TGI) ([3]; CH-205-K study, 40 mg/kg IP, 7 times): 36.38%; tumor volume after sacrifice ([3]; CH-205-K study, 80 mg/kg IP every other day, 7 times, control 1.743±0.129): 0.867±0.086 cm^3; Tumor growth inhibition ratio (TGI) ([3]; CH-205-K study, 80 mg/kg IP, 7 times): 50.29% |
| Cc1c(Cl)c(O)cc(O)c1C(=O)OCC1=C[C@@H]2CC(C)(C)C[C@@H]2[C@@]2(C)C[C@@H](O)[C@@]12O [CH-205-H, (((2R,2aS,4aS,7aS,7bR)-2,2a,4a,5,6,7,7a,7b-octahydro-2,2a-dihydroxy-6,6,7 b-trimethyl-1H-cyclobuta[e]inden-3-yl)methyl 3-chloro-4,6-dihydroxy-2-methylbenzoate)] | 29.3 | 99.7 % of control | 128.7 % of control | 34.9 % of control | 12.7 % of control | 8.4 % of control | 7.0 % of control | – | 56.5 | 7.1 | – | 5.5 | – | 5.4 | 0.0013 | melting point: 148 to 149 °C |
